Tests used:
Assay type in all cases: in vivo
[1] = system: soybean; assay: Test Example 5: effect on crop by foliage application, plastic box (symbol d); details: 320 g/ha, 3 weeks after application
Outline: (§1)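 A greenhouse held between 25° C. and 30° C. was used to grow plants sown spot-wise, beneath ~1.5 cm of soil, in boxes of sterilized diluvial soil.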

[2] = system: Galium spurium; assay: Test Example 5: herbicidal effect by foliage application, plastic box (symbol Q); details: 320 g/ha, 3 weeks after application
Outline: (§2)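 Herbicide, formulated as an emulsion and diluted in water, is sprayed onto the aerial parts of 14-day seedlings. These were grown at 25° C. to 30° C. in sterilized diluvial soil; effects are graded after 3 weeks.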

[3] = system: wheat; assay: Test Example 5: effect on crop by foliage application, plastic box (symbol e); details: 320 g/ha, 3 weeks after application
Outline: as §1

[4] = system: rice plant; assay: Test Example 5: effect on crop by foliage application, plastic box (symbol b); details: 320 g/ha, 3 weeks after application
Outline: as §1

[5] = system: Stellaria media; assay: Test Example 4: herbicidal effect by soil treatment (symbol P); details: application herbicide amount 320 g/ha
Outline: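 Seeds were sown in sterilized diluvial soil, covered with about 1.5 cm of soil, and the soil surface was sprayed with a water-diluted emulsion of the compound at a predetermined rate. Plants grew in a greenhouse at 25° C. to 30° C.; effects were scored visually 3 weeks after application.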

[6] = system: Veronica persica; assay: Test Example 5: herbicidal effect by foliage application, plastic box (symbol R); details: 320 g/ha, 3 weeks after application
Outline: as §2

[7] = system: Amaranthus retroflexus; assay: Test Example 5: herbicidal effect by foliage application, plastic box (symbol N); details: 320 g/ha, 3 weeks after application
Outline: as §2

[8] = system: Scirpus juncoides; assay: Test Example 1: herbicidal activity, application before weed generation in submerged conditions (symbol B); details: application herbicide amount 320 g/ha
Outline: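 Greenhouse growth at 25–30 °C lasted 3 weeks after treatment, when each weed was graded 0–5 by herbicidal ratio. Treatment was a diluted emulsion applied to the water surface of 4 cm-submerged alluvial soil on the sowing day.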

[9] = system: Scirpus juncoides; assay: Test Example 2: herbicidal activity, application during weed generation in submerged conditions (symbol B); details: Table 23; application herbicide amount 320 g/ha; grade 0-5 by criteria of Test Example 1
Outline: (§3)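 Each pot contained alluvial soil under 4 cm of water with seeds of all three weeds sown together. Following growth at 25° C. to 30° C. to the one- to two-leaf stage, the floodwater received diluted emulsion at a predetermined amount; visual assessment followed at 3 weeks.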

[10] = system: corn; assay: Test Example 4: effect on crop by soil treatment (symbol c); details: application herbicide amount 320 g/ha
Outline: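 Plants are raised in a greenhouse (25° C. to 30° C.) from spot-sown seed, which sits under about 1.5 cm of sterilized diluvial soil in a box shared with weed species.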

[11] = system: Echinochloa oryzacola Vasing.; assay: Test Example 2: herbicidal activity, application during weed generation in submerged conditions (symbol A); details: Table 23; application herbicide amount 320 g/ha; grade 0-5 by criteria of Test Example 1
Outline: as §3

[12] = system: Cyperus difformis; assay: Test Example 3: herbicidal effect by foliage application, Wagner pot (symbol E); details: application herbicide amount 320 g/ha; for E herbicidal effect grade: Table 24
Outline: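 Seeds sown in alluvial soil kept under 0.1–0.5 cm water, greenhouse 25–30 °C; 14 d growth. Leaves treated by small sprayer with water-diluted emulsion at a predetermined rate. Effect graded by set scale, 3 weeks.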

Compound | d: soybean, effect on crop (criteria of Test Example 1) [1] | Q: Galium spurium, herbicidal effect (criteria of Test Example 1) [2] | e: wheat, effect on crop (criteria of Test Example 1) [3] | b: directly sowed rice plant, effect on crop (criteria of Test Example 1) [4] | Herbicidal effect grade, P: Stellaria media [5] | R: Veronica persica, herbicidal effect (criteria of Test Example 1) [6] | N: Amaranthus retroflexus, herbicidal effect (criteria of Test Example 1) [7] | Herbicidal effect grade, B: Scirpus juncoides [8] | Herbicidal effect grade, B: Scirpus juncoides [9] | Effect on crop grade, c: corn [10] | Herbicidal effect grade, A: Echinochloa oryzacola Vasing. [11] | d: soybean, effect on crop grade [1] | Q: Galium spurium, herbicidal effect grade [2] | e: wheat, effect on crop grade [3] | b: directly sowed rice plant, effect on crop grade [4] | N: Amaranthus retroflexus, herbicidal effect grade [7] | E herbicidal effect grade [12] | herbicidal effect on E, grade 0-5 [12] | R: Veronica persica, herbicidal effect grade [6] | c (corn) effect on crop grade [10]
CON=C(C)CC1CC(O)=C(c2c(F)cc(-c3ccccc3)cc2OC)C1=O (stereo not shown) [6-107] | 1 (Herbicidal ratio of 5% or higher and lower than 20%) | 5 (Herbicidal ratio of 90% or more (almost completely withered)) | 5 (Herbicidal ratio of 90% or more (almost completely withered)) | 5 (Herbicidal ratio of 90% or more (almost completely withered)) | 2 (Herbicidal ratio of 20% or higher and lower than 40%) | 4 (Herbicidal ratio of 70% or higher and lower than 90%) | 2 (Herbicidal ratio of 20% or higher and lower than 40%) | 5 (Herbicidal ratio of 90% or more (almost completely withered)) | 5 (Herbicidal ratio of 90% or more (almost completely withered)) | 0 (Herbicidal ratio of 5% or lower (almost no effect)) | 5 (Herbicidal ratio of 90% or more (almost completely withered)) | – | – | – | – | – | – | – | – | –
CON=C(C)CC1CC(OC(=O)N2CCCC2)=C(c2c(C)cc(C)cc2OC)C1=O (stereo not shown) [6-110] | 2 (Herbicidal ratio of 20% or higher and lower than 40%) | 3 (Herbicidal ratio of 40% or higher and lower than 70%) | 4 (Herbicidal ratio of 70% or higher and lower than 90%) | 5 (Herbicidal ratio of 90% or more (almost completely withered)) | 0 (Herbicidal ratio of 5% or lower (almost no effect)) | 2 (Herbicidal ratio of 20% or higher and lower than 40%) | 0 (Herbicidal ratio of 5% or lower (almost no effect)) | 3 (Herbicidal ratio of 40% or higher and lower than 70%) | 1 (Herbicidal ratio of 5% or higher and lower than 20%) | 0 (Herbicidal ratio of 5% or lower (almost no effect)) | 5 (Herbicidal ratio of 90% or more (almost completely withered)) | – | – | – | – | – | – | – | – | –
CC(=O)C1CC(O)=C(c2c(C)cc(C)cc2C)C1=O (stereo not shown) [8-001] | – | – | – | – | 0 (Herbicidal ratio of 5% or lower (almost no effect)) | – | – | 0 (Herbicidal ratio of 5% or lower (almost no effect)) | 0 (Herbicidal ratio of 5% or lower (almost no effect)) | 0 (Herbicidal ratio of 5% or lower (almost no effect)) | 0 (Herbicidal ratio of 5% or lower (almost no effect)) | 0 (Herbicidal ratio of 5% or lower (almost no effect)) | 0 (Herbicidal ratio of 5% or lower (almost no effect)) | 0 (Herbicidal ratio of 5% or lower (almost no effect)) | 2 (Herbicidal ratio of 20% or higher and lower than 40%) | 0 (Herbicidal ratio of 5% or lower (almost no effect)) | 0 (Herbicidal ratio of 5% or lower (almost no effect)) | – | – | –
CC(=O)CC1CC(O)=C(c2c(C)cc(-c3ccccc3)cc2C)C1=O (stereo not shown) [7-004] | 4 (Herbicidal ratio of 70% or higher and lower than 90%) | 0 (Herbicidal ratio of 5% or lower (almost no effect)) | 0 (Herbicidal ratio of 5% or lower (almost no effect)) | 5 (Herbicidal ratio of 90% or more (almost completely withered)) | 0 (Herbicidal ratio of 5% or lower (almost no effect)) | – | 0 (Herbicidal ratio of 5% or lower (almost no effect)) | 3 (Herbicidal ratio of 40% or higher and lower than 70%) | 0 (Herbicidal ratio of 5% or lower (almost no effect)) | 4 (Herbicidal ratio of 70% or higher and lower than 90%) | 4 (Herbicidal ratio of 70% or higher and lower than 90%) | – | – | – | – | – | – | 5 (Herbicidal ratio of 90% or more (almost completely withered)) | – | –
COc1cc(Br)cc(F)c1C1=C(O)CC(CC(C)=O)C1=O (stereo not shown) [7-029] | – | 0 (Herbicidal ratio of 5% or lower (almost no effect)) | 2 (Herbicidal ratio of 20% or higher and lower than 40%) | – | 0 (Herbicidal ratio of 5% or lower (almost no effect)) | 0 (Herbicidal ratio of 5% or lower (almost no effect)) | – | 0 (Herbicidal ratio of 5% or lower (almost no effect)) | – | 0 (Herbicidal ratio of 5% or lower (almost no effect)) | – | – | – | – | – | – | 0 (Herbicidal ratio of 5% or lower (almost no effect)) | – | – | –
C#CCON=C(C)CC1CC(O)=C(c2c(C)cc(C)cc2C)C1=O (stereo not shown) [1-019] | – | – | – | – | – | – | – | 5 (Herbicidal ratio of 90% or more (almost completely withered)) | 5 (Herbicidal ratio of 90% or more (almost completely withered)) | – | 5 (Herbicidal ratio of 90% or more (almost completely withered)) | 3 (Herbicidal ratio of 40% or higher and lower than 70%) | 4 (Herbicidal ratio of 70% or higher and lower than 90%) | 5 (Herbicidal ratio of 90% or more (almost completely withered)) | 5 (Herbicidal ratio of 90% or more (almost completely withered)) | 2 (Herbicidal ratio of 20% or higher and lower than 40%) | – | 5 (Herbicidal ratio of 90% or more (almost completely withered)) | 4 (Herbicidal ratio of 70% or higher and lower than 90%) | 4 (Herbicidal ratio of 70% or higher and lower than 90%)
C=CCON=C(C)CC1CC(O)=C(c2c(C)cc(C)cc2C)C1=O (stereo not shown) [1-018] | – | – | – | – | – | – | – | 5 (Herbicidal ratio of 90% or more (almost completely withered)) | 5 (Herbicidal ratio of 90% or more (almost completely withered)) | – | 5 (Herbicidal ratio of 90% or more (almost completely withered)) | 3 (Herbicidal ratio of 40% or higher and lower than 70%) | 4 (Herbicidal ratio of 70% or higher and lower than 90%) | 5 (Herbicidal ratio of 90% or more (almost completely withered)) | 5 (Herbicidal ratio of 90% or more (almost completely withered)) | 0 (Herbicidal ratio of 5% or lower (almost no effect)) | – | 3 (Herbicidal ratio of 40% or higher and lower than 70%) | 4 (Herbicidal ratio of 70% or higher and lower than 90%) | 4 (Herbicidal ratio of 70% or higher and lower than 90%)

Reference: patent publication US11000033B2, “Ketone or oxime compound, and herbicide” (NISSAN CHEMICAL CORPORATION, priority 2014, dated 2021)
